# Laboratory results published in patent publication US12084472B2 (Ardelyx, Inc., priority 2015, dated 2024).
# Target: T1, human TGR5 (Homo sapiens, UniProt Q8TDU6)
# T1 construct: expressed in transfected cells; host or cells: HEK293
# T1 sequence (Q8TDU6 1-330): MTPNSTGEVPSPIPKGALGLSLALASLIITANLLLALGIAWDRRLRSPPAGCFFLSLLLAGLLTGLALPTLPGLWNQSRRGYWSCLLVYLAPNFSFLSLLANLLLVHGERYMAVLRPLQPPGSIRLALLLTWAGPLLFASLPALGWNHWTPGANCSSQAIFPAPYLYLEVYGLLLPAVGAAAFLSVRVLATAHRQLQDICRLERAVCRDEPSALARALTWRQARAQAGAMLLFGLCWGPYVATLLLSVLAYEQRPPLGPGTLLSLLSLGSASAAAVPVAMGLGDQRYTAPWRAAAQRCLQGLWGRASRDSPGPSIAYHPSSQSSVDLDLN
# Experiment: Cell-based TGR5 assay (cAMP generation, HTRF)
# Conditions: HEK293 cells stably transfected with human TGR5; cAMP by HTRF; 30 minutes at 37° C.; read-out: pEC50 Human TGR5 (converted)
# In short: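 First, compounds in 3-fold serial dilution were placed in HBSS with 10 mM HEPES pH 7.4 and 0.5 mM IBMX. Next, human TGR5-expressing HEK293 cells were added and incubated 30 min at 37° C. Finally, cAMP was detected by HTRF and pEC50 derived by logistic fitting.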
row,Compound,EC50
1,"CN(C)C(=O)CCN(C[C@H](O)[C@@H](O)[C@H](O)[C@H](O)CO)C(=O)CCCCc1cc(Cl)c(COC2(c3cnccc3-c3ccccc3OC3CC3)CC2)cc1Cl [Compound I-222, 5-[2,5-dichloro-4-({1-[4-(2-cyclopropoxyphenyl)pyridin-3-yl]cyclopropoxy}methyl)phenyl]-N-[2-(dimethylcarbamoyl)ethyl]-N-[(2S,3R,4R,5R)-2,3,4,5,6-pentahydroxyhexyl]pentanamide]",< 100 nM
2,"O=C(CCCCc1cc(Cl)c(COC2(c3cnccc3-c3ccccc3OC3CC3)CC2)cc1Cl)N(CCO)C[C@H](O)[C@@H](O)[C@H](O)[C@H](O)CO [Compound I-105, 5-[2,5-dichloro-4-({1-[4-(2-cyclopropoxyphenyl)pyridin-3-yl]cyclopropoxy}methyl)phenyl]-N-(2-hydroxyethyl)-N-[(2S,3R,4R,5R)-2,3,4,5,6-pentahydroxyhexyl]pentanamide]",< 100 nM
3,"O=C(NCC1CCCN(S(=O)(=O)c2ccc(Cl)c(COC3(c4cnccc4-c4ccccc4OC4CC4)CC3)c2)C1)NC[C@H](O)[C@@H](O)[C@H](O)[C@H](O)CO (stereo in doubt) [Compound I-426, 1-({1-[4-chloro-3-({1-[4-(2-cyclopropoxyphenyl)pyridin-3-yl]cyclopropoxy}methyl)benzenesulfonyl]piperidin-3-yl}methyl)-3-[(2S,3R,4R,5R)-2,3,4,5,6-pentahydroxyhexyl]urea]",< 100 nM
4,"Cc1ccc(C(C)CCCN(C(=O)[C@@H](O)[C@@H](O)[C@H](O)[C@@H](O)CO)C2CCS(=O)(=O)CC2)cc1CNC1(c2cnccc2-c2ccccc2OC2CC2)CC1 (stereo partly drawn) [Compound I-306, (2S,3S,4R,5S)-N-(4-{3-[({1-[4-(2-cyclopropoxyphenyl)pyridin-3-yl]cyclopropyl}amino)methyl]-4-methylphenyl}pentyl)-N-(1,1-dioxo-1λ^6-thian-4-yl)-2,3,4,5,6-pentahydroxyhexanamide]",< 100 nM
5,"Cc1ccccc1-c1ccncc1C1(NCc2cc(Cl)ccc2Cl)CC1 [Compound I-6, N-[(2,5-dichlorophenyl)methyl]-1-[4-(2-methylphenyl)pyridin-3-yl]cyclopropan-1-amine]",126 to 1000 nM
6,"O=C(COC1CCN(S(=O)(=O)c2ccc(Cl)c(COC3(c4cnccc4-c4ccccc4OC4CC4)CC3)c2)CC1)NC[C@H](O)[C@@H](O)[C@H](O)[C@H](O)CO [Compound I-444, 2-({1-[4-chloro-3-({1-[4-(2-cyclopropoxyphenyl)pyridin-3-yl]cyclopropoxy}methyl)benzenesulfonyl]piperidin-4-yl}oxy)-N-[(2S,3R,4R,5R)-2,3,4,5,6-pentahydroxyhexyl]acetamide]",< 100 nM
7,"O=C(O)CCNC(=O)N(CCCCc1cc(Cl)c(COC2(c3cnccc3-c3ccccc3OC3CC3)CC2)cc1Cl)C[C@H](O)[C@@H](O)[C@H](O)[C@H](O)CO [Compound I-198, 3-[({4-[2,5-dichloro-4-({1-[4-(2-cyclopropoxyphenyl)pyridin-3-yl]cyclopropoxy}methyl)phenyl]butyl}[(2S,3R,4R,5R)-2,3,4,5,6-pentahydroxyhexyl]carbamoyl)amino]propanoic acid]",< 100 nM
8,"CC(OCc1cc(S(=O)(=O)N(CCCCNC(=O)N[C@@H](CO)[C@@H](O)[C@H](O)[C@H](O)CO)C(C)C)ccc1Cl)c1cnccc1-c1ccccc1OC1CC1 (stereo partly drawn) [Compound I-752, 4-chloro-3-((1-(4-(2-cyclopropoxyphenyl)pyridin-3-yl)ethoxy)methyl)-N-isopropyl-N-(4-(3-((2S,3R,4S,5R)-1,3,4,5,6-pentahydroxyhexan-2-yl)ureido)butyl)benzenesulfonamide]",< 100 nM
9,"O=C([C@@H](O)[C@@H](O)[C@H](O)[C@@H](O)CO)N(CCCCCSc1ccc(Cl)c(COC2(c3cnccc3-c3ccccc3OC3CC3)CC2)c1)CCOCCO [Compound I-489, (2S,3S,4R,5S)-N-(5-[[4-chloro-3-([1-[4-(2-cyclopropoxyphenyl)pyridin-3-yl]cyclopropoxy]methyl)phenyl]sulfanyl]pentyl)-2,3,4,5,6-pentahydroxy-N-[2-(2-hydroxyethoxy)ethyl]hexanamide]",< 100 nM
10,"Cc1ccc(SCCCCC(=O)NC[C@H](O)[C@@H](O)[C@H](O)[C@H](O)CO)nc1CNC1(c2cnccc2-c2ccccc2OC2CC2)CC1 [Compound I-645, 5-({6-[({1-[4-(2-cyclopropoxyphenyl)pyridin-3-yl]cyclopropyl}amino)methyl]-5-methylpyridin-2-yl}sulfanyl)-N-[(2S,3R,4R,5R)-2,3,4,5,6-pentahydroxyhexyl]pentanamide]",< 100 nM
11,"CC(CCCC(=O)N(CCC(=O)N(C)C)C[C@H](O)[C@@H](O)[C@H](O)[C@H](O)CO)c1ccc(Cl)c(CNC2(c3cnccc3-c3ccccc3OC3CC3)CC2)c1 (stereo partly drawn) [Compound I-345, 5-{4-chloro-3-[({1-[4-(2-cyclopropoxyphenyl)pyridin-3-yl]cyclopropyl}amino)methyl]phenyl}-N-[2-(dimethylcarbamoyl)ethyl]-N-[(2S,3R,4R,5R)-2,3,4,5,6-pentahydroxyhexyl]hexanamide]",126 to 1000 nM
12,"CCCC(=O)N(CCCCc1cc(Cl)c(COC2(c3cnccc3-c3ccccc3OC3CC3)CC2)cc1Cl)C[C@H](O)[C@@H](O)[C@H](O)[C@H](O)CO [Compound I-74, N-{4-[2,5-dichloro-4-({1-[4-(2-cyclopropoxyphenyl)pyridin-3-yl]cyclopropoxy}methyl)phenyl]butyl}-N-[(2S,3R,4R,5R)-2,3,4,5,6-pentahydroxyhexyl]butanamide]",126 to 1000 nM
13,"CN(C[C@H](O)[C@@H](O)[C@H](O)[C@H](O)CO)C(=O)CCCSc1ccc(Cl)c(CNC2(c3cnccc3-c3ccccc3OC3CC3)CC2)c1 [Compound I-650, 4-({4-chloro-3-[({1-[4-(2-cyclopropoxyphenyl)pyridin-3-yl]cyclopropyl}amino)methyl]phenyl}sulfanyl)-N-methyl-N-[(2S,3R,4R,5R)-2,3,4,5,6-pentahydroxyhexyl]butanamide]",< 100 nM
14,"COCCN(CCCC(C)c1ccc(Cl)c(CNC2(c3cnccc3-c3ccccc3OC3CC3)CC2)c1)C(=O)[C@@H](O)[C@@H](O)[C@H](O)[C@@H](O)CO (stereo partly drawn) [Compound I-282, (2S,3S,4R,5S)-N-(4-{4-chloro-3-[({1-[4-(2-cyclopropoxyphenyl)pyridin-3-yl]cyclopropyl}amino)methyl]phenyl}pentyl)-2,3,4,5,6-pentahydroxy-N-(2-methoxyethyl)hexanamide]",< 100 nM
15,"Cc1cc(COC2(c3cnccc3-c3ccccc3OC3CC3)CC2)c(Cl)cc1CCCCNC(=O)NC[C@@H]1O[C@H](CO)[C@@H](O)[C@H](O)[C@H]1O [Compound I-109, 3-{4-[5-chloro-4-({1-[4-(2-cyclopropoxyphenyl)pyridin-3-yl]cyclopropoxy}methyl)-2-methylphenyl]butyl}-1-{[(2S,3R,4R,5S,6R)-3,4,5-trihydroxy-6-(hydroxymethyl)oxan-2-yl]methyl}urea]",< 100 nM
16,"NC(=O)CN(C[C@H](O)[C@@H](O)[C@H](O)[C@H](O)CO)C(=O)CCCCc1cc(Cl)c(COC2(c3cnccc3-c3ccccc3OC3CC3)CC2)cc1Cl (stereo in doubt) [Compound I-208, N-(carbamoylmethyl)-5-[2,5-dichloro-4-({1-[4-(2-cyclopropoxyphenyl)pyridin-3-yl]cyclopropoxy}methyl)phenyl]-N-[(2S,3R,4R,5R)-2,3,4,5,6-pentahydroxyhexyl]pentanamide]",< 100 nM
17,"O=C1NCCN1CCN(CCCSc1ccc(Cl)c(COC2(c3cnccc3-c3ccccc3OC3CC3)CC2)c1)C(=O)[C@@H](O)[C@@H](O)[C@H](O)[C@@H](O)CO [Compound I-543, (2S,3S,4R,5S)-N-(3-{[4-chloro-3-({1-[4-(2-cyclopropoxyphenyl)pyridin-3-yl]cyclopropoxy}methyl)phenyl]sulfanyl}propyl)-2,3,4,5,6-pentahydroxy-N-[2-(2-oxoimidazolidin-1-yl)ethyl]hexanamide]",126 to 1000 nM
18,"Cc1ccc(CCCCNC(=O)NC[C@H](O)[C@@H](O)[C@H](O)[C@H](O)CO)cc1COC1(c2cnccc2-c2ccccc2OC2CC2)CC1 [Compound I-239, 1-{4-[3-({1-[4-(2-cyclopropoxyphenyl)pyridin-3-yl]cyclopropoxy}methyl)-4-methylphenyl]butyl}-3-[(2S,3R,4R,5R)-2,3,4,5,6-pentahydroxyhexyl]urea]",126 to 1000 nM
19,"CN(CCCCNC(=O)N[C@@H](CO)[C@@H](O)[C@H](O)[C@H](O)CO)S(=O)(=O)c1ccc(C(F)(F)F)c(CNC2(c3cnccc3-c3ccccc3OC3CC3)CC2)c1 [Compound I-470, 1-(4-{N-methyl3-[({1-[4-(2-cyclopropoxyphenyl)pyridin-3-yl]cyclopropyl}amino)methyl]-4-(trifluoromethyl)benzenesulfonamido}butyl)-3-[(2S,3R,4S,5R)-1,3,4,5,6-pentahydroxyhexan-2-yl]urea]",126 to 1000 nM
20,"Clc1ccc(Cl)c(CNC2(c3cnccc3-c3ccccc3OC3CCC3)CC2)c1 [Compound I-5, 1-[4-(2-cyclobutoxyphenyl)pyridin-3-yl]-N-[(2,5-dichlorophenyl)methyl]cyclopropan-1-amine]",126 to 1000 nM
21,"O=C([C@@H](O)[C@@H](O)[C@H](O)[C@@H](O)CO)N(CCCCc1cc(Cl)c(COC2(c3cnccc3-c3ccccc3OC3CC3)CC2)cc1Cl)CC1CC1 [Compound I-211, (2S,3S,4R,5S)-N-(cyclopropylmethyl)-N-{4-[2,5-dichloro-4-({1-[4-(2-cyclopropoxyphenyl)pyridin-3-yl]cyclopropoxy}methyl)phenyl]butyl}-2,3,4,5,6-pentahydroxyhexanamide]",< 100 nM
